# Data published in patent US5534260A, “Percutaneous drug delivery system” (priority 1994, dated 1996).
# Where “and” joins values, the source holds several entries; their conditions need not be identical. Equal values may be shown once. Entries after “also recorded” stand apart in the source; their conditions may differ. Read-outs that look alike come from different tables or passages of the source.
# B1: Sigma papain: papain from Sigma Chemical (protein, UniProt P00784 134-345, looked up)
# Papain: IPEYVDWRQKGAVTPVKNQGSCGSCWAFSAVVTIEGIIKIRTGNLNEYSEQELLDCDRRSYGCNGGYPWSALQLVAQYGIHYRNTYPYEGVQRYCRSREKGPYAAKTDGVRQVQPYNEGALLYSIANQPVSVVLEAAGKDFQLYRGGIFVGPCGNKVDHAVAAVGYGPNYILIKNSWGTGWGENGYIRIKRGTGNSYGVCGLYTSSFYPVKN
# B2: Allergan papain: papain contained in a contact lens cleaning product (tablets for dissolution in water) wherein activators are included (protein, UniProt P00784 134-345, looked up)
# Papain: B1 Papain
# modifications: contact lens cleaning tablet with activators
# Columns and labels:
# [1] = Effect of non-enzyme components in admixture with papain on penetration of 14C-TEAB (Example IV); settings: 14C-TEAB through pretreated skin (n = 1 for components alone, n = 2 combinations, n = 3 papain 0.0465 mg/ml 24 hours)
# [2] = Effect of pH on drug penetration through hairless mouse skin pretreated with papain (Example V B); format: in vitro ADME
# Description: B. Effect of pH on drug penetration through hairless mouse
# skin Pretreated with sigma papain of concentration 0.093
# [3] = Effect of pH on drug penetration through normal untreated hairless mouse skin (Example V A); format: in vitro ADME; settings: for P (permeability): mouse
# [4] = Fourier Transform Infrared spectroscopy of stratum corneum; set-up: species or system mouse; settings: for Absorbance in protein areas, peak position: Table I
# Protocol: A. Comparisons of normal stratum corneum (from mouse skin) to stratum corneum treated with a 0.09% concentration of papain for 24 hours was performed using Fourier Transform Infrared spectroscopy (FTIR). […] It is postulated that a shift from a random form of protein to the more organized beta sheet structure occurs. The alpha-helix structures of skin protein could be fractionated, uncoiled, or both.
# A comparison of symmetric and asymmetric CH stretch bands was then made. These two bands represent lipid structure and would show any changes in the stratum corneum lipids caused by the papain.
# B. Azone™ was tested as a permeation enhancer with and without the presence of papain.
# in vitro = settings: mouse
# [5] = Penetration of polypeptides through papain-pretreated mouse skin, SDS-PAGE; format: in vitro ADME; settings: for fragmentation of diffused polypeptide: diffused through papain treated skin, SDS-PAGE
# Description: After papain skin treatment pursuant to Example III.1 above, polypeptides were diffused through the pretreated mouse skin using the same concentration and pH values for each test. Pure buffer solution was also diffused through the pretreated skin of the mouse to determine if any endogenous proteins diffused into the diffusate.
# Comparisons of solutions of non-diffused polypeptides, diffused polypeptides and diffused buffer solutions were made using gel electrophoresis. The system used for these determinations was sodium dodecyl sulfate polyacrylamide gel electrophoresis (SDS-PAGE), a procedure well-known in the art. These comparisons determined if fragmentation of the diffused polypeptide molecules occurred.
# A series of polypeptides of various molecular weights were studied.
# [6] = mouse
# [7] = pH 5.9, sigma papain 0.093 mg/ml for 24 hours
# [8] = pH 6.6, sigma papain 0.093 mg/ml for 24 hours
# [9] = pH 7.4, sigma papain 0.093 mg/ml for 24 hours
# [10] = pH 8.0, sigma papain 0.093 mg/ml for 24 hours
# [11] = TEAB, pretreated with papain 0.010 mg/0.108 ml (0.093 mg/ml)
# [12] = TEAB, pretreated with papain 0.170 mg/0.602 ml (0.278 mg/ml)
# [13] = TEAB, pretreated with papain 0.170 mg/0.200 ml ([…])
molecule,measurement,setting,value
"CCCCCCCC/C=C\CCCCCCCCO [10% oleyl alcohol, oleyl alcohol]",J (flux),[1],1.49 × 10^-4 mg cm^-2 s^-1
"CC(=O)OCC[N+](C)(C)C.[Cl-] [Acetylcholine Chloride, acetylcholine chloride]",E (enhancement),[2]; [7],103.09
same,J (flux),[2]; [7],6.00 × 10^-4 mg/cm^2 /sec
same,P (permeability),[2]; [7],3 ×10⁻⁶ cm/s
same,E (enhancement),[2]; [8],149.23
same,J (flux),[2]; [8],7.77 × 10^-4 mg/cm^2 /sec
same,P (permeability),[2]; [8],3.88 ×10⁻⁶ cm/s
same,E (enhancement),[2]; [9],100.94
same,J (flux),[2]; [9],6.46 × 10^-4 mg/cm^2 /sec
same,P (permeability),[2]; [9],3.23 ×10⁻⁶ cm/s
same,E (enhancement),[2]; [10],67.38
same,J (flux),[2]; [10],6.28 × 10^-4 mg/cm^2 /sec
same,P (permeability),[2]; [10],3.14 ×10⁻⁶ cm/s
same,J (flux),[3]; pH 5.9,5.83 × 10^-6 mg/cm^2 /sec
same,J (flux),[3]; pH 6.6,5.21 × 10^-6 mg/cm^2 /sec
same,J (flux),[3]; pH 7.4,6.41 × 10^-6 mg/cm^2 /sec
same,J (flux),[3]; pH 8.0,9.32 × 10^-6 mg/cm^2 /sec
C=CCc1ccccc1OCC(O)CNC(C)C (stereo not shown) [Alprenolol],P (permeability),"[2]; mouse, pH 5.9",1.2 ×10⁻⁶ cm/s
same,P (permeability),"[2]; mouse, pH 6.6",1.33 ×10⁻⁶ cm/s
same,P (permeability),"[2]; mouse, pH 7.4",1.32 ×10⁻⁶ cm/s
same,P (permeability),"[2]; mouse, pH 8",1.65 ×10⁻⁶ cm/s
same,E (enhancement),[2]; [7],22.39
same,E (enhancement),[2]; [8],17.18
same,E (enhancement),[2]; [9],7.17
same,E (enhancement),[2]; [10],7.86
same,P (permeability),[3]; pH 5.9,0.0536 ×10⁻⁶ cm/s
same,P (permeability),[3]; pH 7.4,0.184 ×10⁻⁶ cm/s
same,P (permeability),[3]; pH 8,0.21 ×10⁻⁶ cm/s
same,J (flux),[3]; pH 5.9,5.36 × 10^-7 mg/cm^2 /sec
same,J (flux),[3]; pH 6.6,7.74 × 10^-7 mg/cm^2 /sec
same,J (flux),[3]; pH 7.4,1.84 × 10^-6 mg/cm^2 /sec
same,J (flux),[3]; pH 8,2.10 × 10^-6 mg/cm^2 /sec
"CCCCCCCCCCCCN1CCCCCC1=O [Azone, 1-n-dodecylazacycloheptan-2-one]","Absorbance in protein areas, peak position",[4]; untreated SC 1244,1244.5 cm⁻¹
same,"Absorbance in protein areas, peak position",[4]; untreated SC 1267,1267.4 cm⁻¹
same,"Absorbance in protein areas, peak position",[4]; untreated SC 1295,1296.6 cm⁻¹
same,"Absorbance in protein areas, peak position",[4]; untreated SC 1400.5,1402 cm⁻¹
same,"Absorbance in protein areas, peak position",[4]; untreated SC 1456,1461.8 cm⁻¹
same,"Absorbance in lipid areas, symmetric CH peak position","[4]; Table II, untreated 2848.3",2850 cm⁻¹
same,"Absorbance in lipid areas, asymmetric CH peak position","[4]; Table II, untreated 2916.5",2920 cm⁻¹
same,"Length of the 70% line, symmetric CH","[4]; Table III, untreated 8.6",11.4 cm⁻¹
same,"Length of the 70% line, asymmetric CH","[4]; Table III, untreated 17.5",27.2 cm⁻¹
same,Asymm CH,"[4]; Table VII, exposed SC",2916.5 cm⁻¹
same,Symm CH,"[4]; Table VII, exposed SC",2848.3 cm⁻¹
same,Symm 70% line,"[4]; Table VII, normal SC 8.6",11.4 cm⁻¹
same,Asymm 70% line,"[4]; Table VII, normal SC 17.5",27.2 cm⁻¹
same,change in lipid structure / CH stretch bands of stratum corneum,"[4]; in words, listed as Azone™",lengthening of both symmetric and asymmetric CH stretch lines but did not change their peak positions and 70% line lengthened
same,change in protein FTIR areas of stratum corneum,"[4]; in words, listed as Azone™",did not change protein FTIR areas; also recorded: did not significantly effect the protein
same,change in protein FTIR areas of stratum corneum,"[4]; in words, listed as azone",No significant changes occurred in the protein areas
CC(=O)[C@H]1CC[C@H]2[C@@H]3CCC4=CC(=O)CC[C@]4(C)[C@H]3CC[C@]12C [Progesterone],E (enhancement),[2]; [7],1.25
same,J (flux),[2]; [7],2.88 × 10^-7 mg/cm^2 /sec
same,E (enhancement),[2]; [8],1.50
same,J (flux),[2]; [8],3.51 × 10^-7 mg/cm^2 /sec
same,E (enhancement),[2]; [9],1.17
same,J (flux),[2]; [9],2.73 × 10^-7 mg/cm^2 /sec
same,E (enhancement),[2]; [10],1.17
same,P (permeability),[2]; [10],0.289 ×10⁻⁶ cm/s and 3.61 ×10⁻⁶ cm/s
same,J (flux),[3]; pH 5.9,2.30 × 10^-7 mg/cm^2 /sec
same,J (flux),[3]; pH 6.6,2.34 × 10^-7 mg/cm^2 /sec
same,J (flux),[3]; pH 7.4,2.34 × 10^-7 mg/cm^2 /sec and 2.92 × 10^-6 mg/cm^2 /sec
same,J (flux),[3]; pH 8.0,3.09 × 10^-6 mg/cm^2 /sec
"CC[N+](CC)(CC)CC.[Br-] [TEAB, tetraethylammonium bromide]",P (permeability),mouse,0.0254 ×10⁻⁶ cm/s
same,Papp,in vitro,0.00495 ×10⁻⁶ cm/s
"carbonic anhydrase: Carbonic anhydrase, MW 29,000",fragmentation of diffused polypeptide,[5],fractionated during the permeation process
same,breakdown of molecule on exposure to papain treated skin without diffusion,[5]; donor solution of the diffusion cell,no change or breakdown of the molecule
dioxolane [2% dioxolane],P (permeability),[6],0.00521 ×10⁻⁶ cm/s
"insulin: Insulin (Regular, Bovine), MW 6,000",fragmentation of diffused polypeptide,[5],determination of molecular fragmentation due to the permeation would be very difficult if not impossible
"lysozyme: Lysozyme, MW 14,400",fragmentation of diffused polypeptide,[5],no significant difference in molecular size. The molecule remained intact and did not break apart
B1,J (flux),[11],6.87 × 10^-4 mg/cm^2 /sec
same,P (permeability),[11],0.85 ×10⁻⁶ cm/s
same,J (flux),[12],1.46 × 10^-3 mg/cm^2 /sec
same,P (permeability),[12],1.81 ×10⁻⁶ cm/s
B2,J (flux),[13],1.04 × 10^-3 mg/cm^2 /sec
same,P (permeability),[13],1.29 ×10⁻⁶ cm/s
